Tests used:
human subjects [1] = assay: Timed Up and Go (TUG) test, 16-week placebo-controlled clinical study; type: in vivo; conditions: 8 and 16 weeks
Experimental: FIG. 1A illustrates the Timed Up and Go (TUG) test, wherein the time it takes a subject to stand up from a chair, walk three meters, turn around and return to the chair is measured.
(§1) A double-blind placebo-controlled, 16-week, treatment with neflamapimod was conducted in parallel groups at 22 centers in the US and 2 centers in the Netherlands.
(§2) Inclusion criteria included Mild-to-moderate (MMSE 15-28) probable Dementia with Lewy Bodies by consensus criteria (McKeith et al, Neurology, 2017; 89:88-100), a positive reading of DaTscan™, and have to have been currently receiving cholinesterase inhibitor therapy (>3 months and stable dose >6 weeks). If DaTscan™ was negative, subjects could also be enrolled with history of polysomnography-confirmed REM sleep disorder (6 study participants so enrolled). The study was randomized 1:1 to 40 mg neflamapimod or matching-placebo capsules. Dosing regimen was based on weight: subjects weighing <80 kg received capsules twice-daily (BID) and those weighing ≥80 kg received capsules three-times-a-day (TID).
Secondary clinical endpoints included the following. (a) International Shopping List Test (ISLT); (b) Timed Up and Go Test (TUG), Ten item Neuropsychiatric Inventory (NPI-10); and (c) Clinical Dementia Rating scale Sum-of-Boxes (CDR-SB). […]

human subjects [2] = assay: Personal Care Domain of Clinical Dementia Rating Scale Sum of Boxes (CDR-SB); type: in vivo; conditions: neflamapimod vs placebo over 16 weeks; p=0.02 (MMRM), FIG. 4
Experimental: as §1, §2
Secondary clinical endpoints included the following. (a) International Shopping List Test (ISLT); (b) Timed Up and Go Test (TUG), Ten item Neuropsychiatric Inventory (NPI-10); and (c) Clinical Dementia Rating scale Sum-of-Boxes (CDR-SB). The TUG test is useful to measure risk of fall in patients with or at risk of suffering from Parkinson's disease (see e.g., Arch Phys Med Rehabil. 2013 July; 94(7): 1300-1305).

human subjects [3] = assay: EEG beta functional connectivity, corrected Amplitude Envelope Correlation (AECc); type: in vivo
Experimental: “40 mg” refers to combined neflamapimod patients, including 40 mg BID and 40 mg TID.
These regions, in particular the frontal cortex, receive cholinergic input, including projections from the nucleus basalis of Meynert. Dysfunction of the cholinergic system leads to impaired cortical functional connectivity, which is disruptive to the performance of complex motor functions such as gait. The ability of neflamapimod to improve functional connectivity, as measured by EEG in the experiments described herein, provides further support for the efficacy of neflamapimod to alleviate gait dysfunction.
Functional connectivity analysis, specifically corrected Amplitude Envelope Correlation (AECc), measures interregional communication or so-called ‘functional connectivity’ between different brain regions. In the functional connectivity analysis, a positive neflamapimod treatment effect on AECc in the beta band (13-30 Hz) was identified. Mean AECc beta was increased with neflamapimod TID versus all placebo (p=0.033) and versus placebo TID (p=0.01).

hippocampal neurons = conditions: hippocampal cell culture; cited from earlier work
CKIδ = CKIδ (Homo sapiens, UniProt P48730); conditions: cited from earlier work
CKIε = CKIε (Homo sapiens, UniProt P49674); conditions: cited from earlier work
Sequence of CKIε (P49674 whole entry, species assumed): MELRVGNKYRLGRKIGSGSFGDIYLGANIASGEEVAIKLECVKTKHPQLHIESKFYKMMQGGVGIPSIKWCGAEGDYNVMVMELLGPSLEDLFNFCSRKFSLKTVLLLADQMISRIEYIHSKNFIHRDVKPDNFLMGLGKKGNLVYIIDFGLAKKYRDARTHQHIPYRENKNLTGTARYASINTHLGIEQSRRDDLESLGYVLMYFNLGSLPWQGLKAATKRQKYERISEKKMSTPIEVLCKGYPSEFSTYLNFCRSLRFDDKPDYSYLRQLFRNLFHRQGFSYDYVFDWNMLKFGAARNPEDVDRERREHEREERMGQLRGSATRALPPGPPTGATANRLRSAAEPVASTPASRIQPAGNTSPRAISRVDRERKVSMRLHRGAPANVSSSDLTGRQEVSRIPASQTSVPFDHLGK

Sequence of CKIδ (P48730 whole entry, species assumed): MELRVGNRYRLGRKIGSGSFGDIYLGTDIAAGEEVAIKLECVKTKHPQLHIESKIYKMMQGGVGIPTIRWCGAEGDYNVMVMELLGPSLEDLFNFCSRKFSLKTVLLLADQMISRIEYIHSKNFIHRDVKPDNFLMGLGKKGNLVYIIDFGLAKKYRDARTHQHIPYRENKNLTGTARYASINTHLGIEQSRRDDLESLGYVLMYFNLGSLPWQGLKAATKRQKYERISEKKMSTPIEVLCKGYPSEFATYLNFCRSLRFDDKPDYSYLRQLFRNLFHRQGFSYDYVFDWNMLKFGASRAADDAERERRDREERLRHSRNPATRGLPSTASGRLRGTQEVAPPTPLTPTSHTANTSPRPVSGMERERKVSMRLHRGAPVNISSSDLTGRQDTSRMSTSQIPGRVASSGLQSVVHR

O=c1ncn2nc(Sc3ccc(F)cc3F)ccc2c1-c1c(Cl)cccc1Cl [neflamapimod, 5-(2,6-dichlorophenyl)-2-(2,4-difluorophenylthio)-6H-pyrimido[1,6-b]pyridazin-6-one]
TUG test outcome (human subjects [1]; all neflamapimod (40 mg BID and 40 mg TID) vs all placebo, p=0.044 (MMRM), FIG. 2): significantly improve outcome | TUG test outcome (human subjects [1]; neflamapimod 40 mg TID vs placebo TID, p=0.024 (MMRM), FIG. 3): significantly improve outcome | Personal care domain of the CDR sum of boxes (human subjects [2]): significant positive outcome | AECc in each of the other bands (human subjects [3]; EEG bands other than beta): stable or slightly improved with no treatment group differences | Mean AECc beta (13-30 Hz) functional connectivity (human subjects [3]; neflamapimod TID versus all placebo (p=0.033) and versus placebo TID (p=0.01)): increased | AECc beta by brain region (human subjects [3]; placebo TID versus neflamapimod TID, frontal p=0.009, temporal p=0.036, parietal p=0.036): most prominent in the frontal region | Effect against amyloid β-derived diffusible ligand (ADDL) induced synaptotoxicity (hippocampal neurons): positive effects

COc1nccc(-c2c(-c3ccc(F)cc3)ncn2C2CCC(O)CC2)n1 (stereo not shown) [SB239063]
Effect against amyloid β-derived diffusible ligand (ADDL) induced synaptotoxicity (hippocampal neurons): ineffective | Inhibition of casein kinase isoform CKIδ (CKIδ): inhibit | Inhibition of casein kinase isoform CKIε (CKIε): inhibit
